Measurements from ChEMBL document CHEMBL1201862, “PubChem BioAssay data set” (2004).
The source made the active and inactive calls.

Tests used:
[1] = alpha-synuclein stem-loop translation blockers – luminescence, H4 neuroglioblastoma cells, dose confirmation, confirmation (AID 2454); type: functional, cell-based;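 further: H4 neuroglioblastoma cells carrying an alpha-synuclein 5'UTR luciferase reporter; potency for inhibition of the luciferase signal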
[2] = luciferase reporter signal suppression in cells – H4 neuroglioma cells, luminescence, dose response (AID 1990); type: functional, cell-based
[3] = alpha-synuclein stem-loop luciferase translation blockers – H4 neuroglioma cells, luminescence, confirmation (AID 1988); type: functional, cell-based
[4] = Luminescence Cell-Based Dose Response HTS to Identify Inhibitors of 5'UTR Stem-Loop Driven Prion Protein mRNA Translation in H4 Neuroglioblastoma Cells. [Related pubchem assays: 1827 (Project Summary), 1813 (Primary HTS)]; type: functional
[5] = cells; type: functional, cell-based
[6] = luciferase reporter signal reduction – luminescence, H4-C neuroglioblastoma cells, dose response (AID 2458); type: functional, cell-based;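 further: H4 neuroglioblastoma cells stably carrying a luciferase reporter gene fusion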
[7] = biological target: T1, Microphthalmia-associated transcription factor (Homo sapiens, UniProt O75030); assay: reducers of TRPM1 reporter luminescence, concentration series – cell-based, SK-MEL-5, cherry-picked, set 3, MITF inhibitor project, dose response (AID 493073); type: functional;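 further: SK-MEL-5 melanoma cells with luciferase driven by the MITF target TRPM1 promoter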
T1 sequence (O75030 whole entry): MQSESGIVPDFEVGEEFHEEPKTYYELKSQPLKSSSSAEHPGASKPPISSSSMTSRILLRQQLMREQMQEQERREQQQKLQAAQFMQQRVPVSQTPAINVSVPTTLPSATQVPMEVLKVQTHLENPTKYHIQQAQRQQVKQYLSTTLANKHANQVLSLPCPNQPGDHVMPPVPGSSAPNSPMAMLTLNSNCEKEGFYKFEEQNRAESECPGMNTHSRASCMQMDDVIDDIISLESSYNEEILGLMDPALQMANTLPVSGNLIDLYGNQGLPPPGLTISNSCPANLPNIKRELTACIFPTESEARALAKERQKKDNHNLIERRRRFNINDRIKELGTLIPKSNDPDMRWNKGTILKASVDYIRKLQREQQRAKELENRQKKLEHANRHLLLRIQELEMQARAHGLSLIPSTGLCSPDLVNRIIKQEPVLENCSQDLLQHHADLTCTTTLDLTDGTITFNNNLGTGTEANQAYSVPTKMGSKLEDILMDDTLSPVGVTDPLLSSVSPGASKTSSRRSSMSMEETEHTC

[8] = viability loss of HPDE-C7K cells – cell-based, fluorescence, HTS, primary screen (AID 431); type: functional; conditions: Homo sapiens
[9] = biological target: Voltage-dependent T-type calcium channel subunit alpha-1H (Homo sapiens, UniProt O95180); type: functional;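 further: channel activity triggered by adding a high calcium stimulation buffer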
[10] = HPDE-C7 pancreatic duct cell viability loss – fluorescence, HTS (AID 430); type: functional, cell-based; conditions: Homo sapiens
[11] = A Cell Based Secondary Assay To Explore Cytotoxicity of Compounds that Sensitize Mycobacterium Tuberculosis to Beta-Lactam Antibiotics.; type: functional
[12] = biological target: T2, ORF 73 (Human herpesvirus 8, UniProt O40947); assay: KSHV LANA DNA-binding disruption – biochemical, fluorescence polarization, cherry-picked samples, dose response (AID 504725); design: species or system Human gammaherpesvirus 8;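 further: fluorescence polarization of a labeled DNA duplex reporting LANA DNA binding; potency is for inhibitors that block LANA binding to the DNA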
T2 sequence (O40947 whole entry): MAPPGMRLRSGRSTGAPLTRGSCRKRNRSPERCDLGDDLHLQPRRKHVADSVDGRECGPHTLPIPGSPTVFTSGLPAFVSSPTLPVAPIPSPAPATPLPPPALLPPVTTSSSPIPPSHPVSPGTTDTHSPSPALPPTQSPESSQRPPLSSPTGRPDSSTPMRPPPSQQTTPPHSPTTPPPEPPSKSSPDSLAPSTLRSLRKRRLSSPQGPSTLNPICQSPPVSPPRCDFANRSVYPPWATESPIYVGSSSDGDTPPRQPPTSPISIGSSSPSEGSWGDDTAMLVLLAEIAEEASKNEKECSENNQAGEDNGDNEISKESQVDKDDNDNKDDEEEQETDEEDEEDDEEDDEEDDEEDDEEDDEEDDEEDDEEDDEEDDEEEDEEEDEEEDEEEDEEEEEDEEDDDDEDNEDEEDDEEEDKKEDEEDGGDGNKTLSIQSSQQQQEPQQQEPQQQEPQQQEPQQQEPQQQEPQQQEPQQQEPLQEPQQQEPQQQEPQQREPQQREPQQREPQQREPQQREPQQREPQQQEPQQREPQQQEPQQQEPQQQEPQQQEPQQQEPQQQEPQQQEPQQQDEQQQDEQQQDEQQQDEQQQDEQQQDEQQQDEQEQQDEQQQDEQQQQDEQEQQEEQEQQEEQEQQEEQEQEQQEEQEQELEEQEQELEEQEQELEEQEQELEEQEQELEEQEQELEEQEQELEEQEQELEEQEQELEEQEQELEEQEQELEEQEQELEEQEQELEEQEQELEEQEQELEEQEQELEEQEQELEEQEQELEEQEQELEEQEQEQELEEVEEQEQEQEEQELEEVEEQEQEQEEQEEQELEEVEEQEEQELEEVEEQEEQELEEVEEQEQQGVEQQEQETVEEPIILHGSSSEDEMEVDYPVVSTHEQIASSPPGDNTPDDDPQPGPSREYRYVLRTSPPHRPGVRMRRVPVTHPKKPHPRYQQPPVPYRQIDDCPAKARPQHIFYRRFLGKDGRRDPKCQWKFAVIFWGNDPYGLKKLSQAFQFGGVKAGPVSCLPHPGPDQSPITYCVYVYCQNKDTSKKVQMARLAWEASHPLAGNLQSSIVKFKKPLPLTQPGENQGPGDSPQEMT

[13] = biological target: T3, Zinc finger protein mex-5 (Caenorhabditis elegans, UniProt Q9XUB2); assay: potency of MEX-5 RNA-binding blockers – biochemical, C. elegans, fluorescence polarization, dose response (AID 1960)
T3 sequence (Q9XUB2 whole entry): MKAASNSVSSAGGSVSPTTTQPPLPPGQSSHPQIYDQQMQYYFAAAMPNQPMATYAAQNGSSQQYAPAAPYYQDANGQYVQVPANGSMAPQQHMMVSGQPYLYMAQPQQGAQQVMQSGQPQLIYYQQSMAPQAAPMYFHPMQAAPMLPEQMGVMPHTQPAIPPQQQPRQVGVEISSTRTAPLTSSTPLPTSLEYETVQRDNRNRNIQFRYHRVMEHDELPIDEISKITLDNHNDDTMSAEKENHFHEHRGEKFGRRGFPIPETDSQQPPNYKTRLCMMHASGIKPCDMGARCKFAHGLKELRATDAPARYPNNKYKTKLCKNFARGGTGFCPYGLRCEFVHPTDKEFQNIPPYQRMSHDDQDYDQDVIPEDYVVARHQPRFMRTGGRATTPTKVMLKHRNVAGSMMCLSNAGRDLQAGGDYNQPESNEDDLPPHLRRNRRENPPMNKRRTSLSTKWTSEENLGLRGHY

[14] = test system: HeLa; assay: viability loss in HeLa cells – cell-based, 24 h, cherry-picked samples, cytotoxicity control, dose response (AID 504726); type: functional; conditions: Homo sapiens;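 further: potency for cytotoxicity as loss of luminescence signal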
[15] = biological target: T4, RNA-binding protein pos-1 (Caenorhabditis elegans, UniProt G5EF15); assay: disruptors of C. elegans POS-1 RNA interaction – biochemical, fluorescence polarization, dose response (AID 1964);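 further: purified POS-1 fused to maltose binding protein made in E. coli; potency of compounds blocking POS-1 binding to fluorescent RNA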
T4 sequence (G5EF15 whole entry): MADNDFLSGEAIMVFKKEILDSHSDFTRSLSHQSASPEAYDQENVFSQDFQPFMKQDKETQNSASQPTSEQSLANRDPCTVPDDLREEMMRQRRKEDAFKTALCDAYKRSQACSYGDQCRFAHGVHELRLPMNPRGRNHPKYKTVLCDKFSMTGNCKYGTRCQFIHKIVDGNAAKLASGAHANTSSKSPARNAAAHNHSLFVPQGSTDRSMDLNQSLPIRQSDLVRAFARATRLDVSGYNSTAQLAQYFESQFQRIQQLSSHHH

[16] = biological target: T5, fMet-Leu-Phe receptor (Homo sapiens, UniProt P21462); assay: formyl peptide receptor binders – dose response (AID 519); type: functional
T5 sequence (P21462 whole entry): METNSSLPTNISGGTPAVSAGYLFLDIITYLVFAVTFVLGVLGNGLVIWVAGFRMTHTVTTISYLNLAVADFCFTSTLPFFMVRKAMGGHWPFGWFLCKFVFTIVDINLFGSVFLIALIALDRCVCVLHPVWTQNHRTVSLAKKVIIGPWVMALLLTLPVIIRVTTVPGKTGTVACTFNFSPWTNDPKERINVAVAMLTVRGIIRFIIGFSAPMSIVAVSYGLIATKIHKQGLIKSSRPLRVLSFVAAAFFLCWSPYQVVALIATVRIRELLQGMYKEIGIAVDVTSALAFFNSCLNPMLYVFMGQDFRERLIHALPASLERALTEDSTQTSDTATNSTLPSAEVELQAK

[17] = HEK-293T cell viability reduction – luminescence, B-cell screen hits, cytotoxicity control for BCR NF-kB inhibitor project, dose response (AID 489021); type: functional, cell-based;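 further: HEK-293T cells carrying an NF-kB luciferase reporter; cells exposed to compound for about 14 hours before viability readout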
[18] = biological target: T6, Voltage-gated N-type calcium channel alpha-1B subunit/Amyloid beta A4 precursor protein-binding family A member 1 (Homo sapiens, UniProt Q00975+Q02410); type: protein assay
T6 sequence (Q00975 whole entry): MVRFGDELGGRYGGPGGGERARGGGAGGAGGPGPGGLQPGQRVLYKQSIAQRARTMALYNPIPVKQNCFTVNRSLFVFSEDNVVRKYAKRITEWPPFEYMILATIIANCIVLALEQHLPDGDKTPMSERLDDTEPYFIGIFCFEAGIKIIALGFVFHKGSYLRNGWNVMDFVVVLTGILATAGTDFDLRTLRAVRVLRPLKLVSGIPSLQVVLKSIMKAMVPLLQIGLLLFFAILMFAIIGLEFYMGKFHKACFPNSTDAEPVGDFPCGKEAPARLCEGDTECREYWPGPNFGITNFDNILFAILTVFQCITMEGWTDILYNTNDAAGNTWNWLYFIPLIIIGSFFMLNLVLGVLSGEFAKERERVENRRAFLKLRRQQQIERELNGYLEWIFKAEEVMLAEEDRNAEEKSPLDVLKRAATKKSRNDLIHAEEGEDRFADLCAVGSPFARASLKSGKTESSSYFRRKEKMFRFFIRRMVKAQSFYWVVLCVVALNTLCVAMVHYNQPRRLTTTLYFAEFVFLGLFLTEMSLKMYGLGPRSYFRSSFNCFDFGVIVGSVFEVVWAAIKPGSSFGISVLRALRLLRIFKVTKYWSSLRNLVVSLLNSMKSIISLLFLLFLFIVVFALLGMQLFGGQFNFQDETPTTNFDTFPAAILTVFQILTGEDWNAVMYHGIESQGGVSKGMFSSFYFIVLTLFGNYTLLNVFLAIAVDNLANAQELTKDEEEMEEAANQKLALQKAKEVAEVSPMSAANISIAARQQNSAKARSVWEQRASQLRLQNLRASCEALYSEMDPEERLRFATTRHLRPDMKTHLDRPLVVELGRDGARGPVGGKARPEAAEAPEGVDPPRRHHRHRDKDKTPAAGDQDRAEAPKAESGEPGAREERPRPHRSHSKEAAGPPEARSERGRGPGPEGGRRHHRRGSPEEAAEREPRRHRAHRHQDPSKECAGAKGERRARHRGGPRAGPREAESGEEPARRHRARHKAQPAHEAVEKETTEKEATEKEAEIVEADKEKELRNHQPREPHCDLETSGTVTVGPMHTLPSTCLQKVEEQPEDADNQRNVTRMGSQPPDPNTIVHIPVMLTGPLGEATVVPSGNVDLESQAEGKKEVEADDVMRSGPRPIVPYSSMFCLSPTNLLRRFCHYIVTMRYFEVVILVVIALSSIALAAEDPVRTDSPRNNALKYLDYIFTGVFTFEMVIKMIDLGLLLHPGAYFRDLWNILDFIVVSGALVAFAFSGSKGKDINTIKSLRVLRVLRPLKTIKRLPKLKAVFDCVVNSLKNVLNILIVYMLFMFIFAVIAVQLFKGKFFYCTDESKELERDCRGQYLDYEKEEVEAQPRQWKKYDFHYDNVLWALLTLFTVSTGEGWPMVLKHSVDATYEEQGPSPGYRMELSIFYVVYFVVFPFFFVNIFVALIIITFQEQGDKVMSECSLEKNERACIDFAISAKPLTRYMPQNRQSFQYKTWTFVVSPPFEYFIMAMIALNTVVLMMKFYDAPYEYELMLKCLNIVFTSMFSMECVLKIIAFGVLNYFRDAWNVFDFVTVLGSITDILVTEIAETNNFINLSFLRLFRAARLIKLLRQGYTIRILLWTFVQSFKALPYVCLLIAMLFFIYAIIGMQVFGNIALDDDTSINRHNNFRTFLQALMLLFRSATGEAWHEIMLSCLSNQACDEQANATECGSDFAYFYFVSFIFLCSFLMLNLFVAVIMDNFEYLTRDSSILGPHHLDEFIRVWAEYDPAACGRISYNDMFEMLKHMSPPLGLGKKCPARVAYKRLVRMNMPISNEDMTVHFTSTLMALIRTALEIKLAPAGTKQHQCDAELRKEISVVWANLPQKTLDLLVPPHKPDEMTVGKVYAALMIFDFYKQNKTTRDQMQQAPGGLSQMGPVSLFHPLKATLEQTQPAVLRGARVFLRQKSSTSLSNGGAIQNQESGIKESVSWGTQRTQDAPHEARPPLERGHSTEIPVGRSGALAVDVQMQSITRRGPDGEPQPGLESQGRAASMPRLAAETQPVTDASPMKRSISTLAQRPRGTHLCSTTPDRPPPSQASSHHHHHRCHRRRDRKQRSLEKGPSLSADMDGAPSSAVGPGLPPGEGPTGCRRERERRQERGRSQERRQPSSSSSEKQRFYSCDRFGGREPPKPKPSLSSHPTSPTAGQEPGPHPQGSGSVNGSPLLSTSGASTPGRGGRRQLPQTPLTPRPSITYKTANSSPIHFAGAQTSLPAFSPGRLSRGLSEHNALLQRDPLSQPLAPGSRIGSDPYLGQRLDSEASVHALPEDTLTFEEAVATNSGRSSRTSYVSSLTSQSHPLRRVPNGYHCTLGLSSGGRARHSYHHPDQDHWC
T6 sequence (Q02410 whole entry): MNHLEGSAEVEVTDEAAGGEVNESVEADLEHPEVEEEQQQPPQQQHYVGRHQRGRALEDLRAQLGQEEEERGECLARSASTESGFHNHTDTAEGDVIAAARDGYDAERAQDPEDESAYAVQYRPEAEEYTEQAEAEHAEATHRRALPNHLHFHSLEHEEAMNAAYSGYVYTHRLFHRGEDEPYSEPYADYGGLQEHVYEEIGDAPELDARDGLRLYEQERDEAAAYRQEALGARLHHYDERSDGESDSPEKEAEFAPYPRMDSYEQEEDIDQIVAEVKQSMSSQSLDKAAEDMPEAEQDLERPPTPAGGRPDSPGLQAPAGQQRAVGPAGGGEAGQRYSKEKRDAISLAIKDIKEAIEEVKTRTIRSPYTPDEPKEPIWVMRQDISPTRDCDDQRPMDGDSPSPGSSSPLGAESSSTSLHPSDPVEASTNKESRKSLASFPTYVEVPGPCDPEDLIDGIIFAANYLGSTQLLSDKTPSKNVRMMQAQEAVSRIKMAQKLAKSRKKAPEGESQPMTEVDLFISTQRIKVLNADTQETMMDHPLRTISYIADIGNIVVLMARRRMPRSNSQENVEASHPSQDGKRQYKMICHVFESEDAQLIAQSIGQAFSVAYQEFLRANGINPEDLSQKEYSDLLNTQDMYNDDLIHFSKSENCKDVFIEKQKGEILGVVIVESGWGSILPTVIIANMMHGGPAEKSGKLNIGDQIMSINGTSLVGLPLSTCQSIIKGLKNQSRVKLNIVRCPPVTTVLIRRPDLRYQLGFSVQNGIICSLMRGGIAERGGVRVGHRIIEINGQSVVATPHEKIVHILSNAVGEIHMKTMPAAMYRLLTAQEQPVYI

[19] = biological target: T6, Voltage-gated N-type calcium channel alpha-1B subunit/Amyloid beta A4 precursor protein-binding family A member 1; type: protein assay; remark: listed apart in the source
[20] = biological target: 72 kDa type IV collagenase (Homo sapiens, UniProt P08253); assay: Dose Response validation of uHTS RPN11 inhibitor hits using a MMP-2 Fluorescence assay.; type: functional
[21] = biological target: NS3 (Hepatitis C virus, UniProt A3EZJ3); assay: PubChem AID 2173; design: species or system Hepacivirus hominis
[22] = biological target: Cytochrome P450 3A4 (Homo sapiens, UniProt P08684);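 further: CYP3A4 tested as one member of a cytochrome P450 panel screen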
Cytochrome P450 3A4, sequence (P08684 whole entry): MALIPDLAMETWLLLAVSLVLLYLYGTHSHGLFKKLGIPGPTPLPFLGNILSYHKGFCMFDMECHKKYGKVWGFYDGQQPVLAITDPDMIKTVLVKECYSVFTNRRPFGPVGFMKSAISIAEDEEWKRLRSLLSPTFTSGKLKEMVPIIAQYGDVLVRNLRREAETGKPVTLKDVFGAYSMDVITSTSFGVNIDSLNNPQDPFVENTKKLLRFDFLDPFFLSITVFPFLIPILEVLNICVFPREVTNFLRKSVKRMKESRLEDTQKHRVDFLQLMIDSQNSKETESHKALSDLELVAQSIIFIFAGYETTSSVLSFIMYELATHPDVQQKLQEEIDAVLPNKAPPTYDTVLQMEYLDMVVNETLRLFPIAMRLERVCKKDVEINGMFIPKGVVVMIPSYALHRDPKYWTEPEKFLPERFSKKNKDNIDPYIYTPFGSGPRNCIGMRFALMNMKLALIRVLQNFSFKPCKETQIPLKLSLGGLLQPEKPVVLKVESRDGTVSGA

[23] = biological target: Cytochrome P450 2C19 (Homo sapiens, UniProt P33261); assay: Cytochrome panel assay with activity outcomes. Panel member name: p450-cyp2c19 Compounds with AC50 equal or less than 10 uM are considered active; type: functional; conditions: read-out: AC50
Cytochrome P450 2C19, sequence (P33261 whole entry): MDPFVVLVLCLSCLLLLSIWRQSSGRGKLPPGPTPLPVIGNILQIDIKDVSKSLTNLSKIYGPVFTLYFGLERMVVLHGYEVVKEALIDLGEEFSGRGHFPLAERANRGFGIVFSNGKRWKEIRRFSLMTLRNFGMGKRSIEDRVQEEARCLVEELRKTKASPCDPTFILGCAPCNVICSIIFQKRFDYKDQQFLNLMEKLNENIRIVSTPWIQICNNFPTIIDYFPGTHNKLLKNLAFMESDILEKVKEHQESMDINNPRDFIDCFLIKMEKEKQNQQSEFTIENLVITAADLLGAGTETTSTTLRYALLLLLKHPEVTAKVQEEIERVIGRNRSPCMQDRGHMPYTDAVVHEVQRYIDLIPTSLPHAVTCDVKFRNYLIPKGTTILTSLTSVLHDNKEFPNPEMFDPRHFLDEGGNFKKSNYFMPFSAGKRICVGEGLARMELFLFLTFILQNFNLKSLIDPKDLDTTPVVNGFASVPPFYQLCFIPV

[24] = biological target: 26S proteasome non-ATPase regulatory subunit 14 (Homo sapiens, UniProt O00487); assay: inhibition of proteasome subunit RPN11 – biochemical, fluorescence polarization, uHTS hits, confirmation (AID 602368); type: functional
26S proteasome non-ATPase regulatory subunit 14, sequence (O00487 whole entry): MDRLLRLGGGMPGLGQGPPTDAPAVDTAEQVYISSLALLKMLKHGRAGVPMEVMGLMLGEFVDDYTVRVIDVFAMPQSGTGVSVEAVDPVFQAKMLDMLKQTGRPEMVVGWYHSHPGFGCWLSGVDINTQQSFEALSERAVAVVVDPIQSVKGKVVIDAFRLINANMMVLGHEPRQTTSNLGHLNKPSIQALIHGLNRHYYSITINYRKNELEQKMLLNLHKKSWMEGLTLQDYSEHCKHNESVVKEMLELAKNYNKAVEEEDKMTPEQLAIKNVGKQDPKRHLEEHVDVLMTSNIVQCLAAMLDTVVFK

[25] = biological target: Induced myeloid leukemia cell differentiation protein Mcl-1 (Homo sapiens, UniProt Q07820); type: functional
Induced myeloid leukemia cell differentiation protein Mcl-1, sequence (Q07820 whole entry): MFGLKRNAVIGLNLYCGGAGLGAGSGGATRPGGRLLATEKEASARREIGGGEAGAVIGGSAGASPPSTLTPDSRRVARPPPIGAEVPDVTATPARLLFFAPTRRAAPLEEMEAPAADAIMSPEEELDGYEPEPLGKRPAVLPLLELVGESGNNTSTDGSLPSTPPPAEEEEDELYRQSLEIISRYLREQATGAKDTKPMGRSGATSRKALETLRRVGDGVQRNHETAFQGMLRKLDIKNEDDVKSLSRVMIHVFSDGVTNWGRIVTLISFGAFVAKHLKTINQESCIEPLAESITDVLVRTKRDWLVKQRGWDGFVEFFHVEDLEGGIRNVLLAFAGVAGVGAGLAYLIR

[26] = biological target: Prothrombin (Bos taurus, UniProt P00735); assay: thrombin protease inhibitors – biochemical, fluorescence polarization, uHTS hits, dose response (AID 602369); type: functional

With `Nc1ccc(-c2ncc(-c3ccccc3)o2)cc1` the EC50 [1] was 0.07 µM (active), the EC50 [2] was < 0.1 µM (active) and the EC50 [3] was < 0.1 µM (active). For the same compound, the EC50 [4] was < 0.1 µM (active), the EC50 [5] was 0.178 µM (active) and the EC50 [6] was 0.044 µM (active). The AC50 [7] was 0.171 µM (active).

For `COc1cc(C)c(C(C)C)cc1S(=O)(=O)n1cnc(C)c1`, the EC50 [8] was 4.11 µM (active), the EC50 [2] was > 120 µM (not active) and the EC50 [3] was 9.12 µM (active). The EC50 [4] was > 120 µM (not active), the EC50 [9] was 52.3 µM (active) and the EC50 [10] was 3.47 µM (active).

For `COc1cc(C(=O)Nc2cccc(-c3cn4cccnc4n3)c2)cc(OC)c1OC`, the CC50 [11] was > 40 µM (active).

For `COc1ccc(C2C(C(=O)c3cccs3)=C(O)C(=O)N2c2nnc(C)s2)cc1OC` (stereo not given), the AC50 [12] was 17.5 µM (active), the EC50 [13] was 5.19 µM (active) and the AC50 [14] was > 350 µM (inactive). For the same compound, the EC50 [15] was 7.2 µM (active) and the Ki [16] was > 66.7 µM (inactive).

For `CCOC(=O)N1CCN(CC(=O)Nc2ccc([N+](=O)[O-])cc2C(=O)Nc2ccccc2F)CC1`, the IC50 [17] was 51.6 µM (inactive).

In the case of `Cc1cc(C(=O)CN2C(=O)NC(c3ccccc3)(c3ccccc3)C2=O)c(C)n1Cc1ccccc1`, the CC50 [11] is reported as > 40 µM (active).

With `COc1cc2cc3c(N)c(C(=O)Nc4sc(C)c(C)c4C#N)sc3nc2cc1OC` the IC50 [18] was > 50 µM (inactive), the IC50 [19] was 11.8 µM (active) and the IC50 [20] was 8.14 µM (active). The IC50 [21] was > 36.3 µM (not active), the AC50 [22] was 8.91 µM (inconclusive) and the AC50 [23] was 15.8 µM (inconclusive). For the same compound, the IC50 [24] was 48.3 µM (active), the IC50 [25] was 1.26 µM (active) and the IC50 [26] was 25.8 µM (active).
